# BindingDB's records for patent US10087181 (Curegenix, 2018)
# Biological target: Protein Wnt-3a (Human, UniProt P56704)
# Assay: WNT pathway reporter gene assay
# Procedure: NIH3T3 mouse fibroblast cells (American Type Culture Collection, Manassas, Va.) were transfected with a plasmid containing a luciferase gene driven by 5 copies of TCF elements. Stale cells selected with 1 μg/mL of Zeocin (Gibco/Invitrogen, Carlsbad, Calif.) are cultured in Dulbecco's modified Eagle's medium (Invitrogen, Carlsbad, Calif.) supplemented with 10% FBS (Invitrogen), 50 unit/mL penicillin and 50 μg/mL of streptomycin (Invitrogen) at 37° C. with 5% CO2 in air atmosphere. […] After 16 hours, the firefly luciferase activities are measured with the Steady-Glo Luciferase Assay System (Promega). The cells were treated with different concentrations of compounds of this invention during the co-culture. […] To normalize for cell quantity and viability, CellTiter Glo assay is next performed in a duplicate plate.
# Chain of Protein Wnt-3a (P56704 whole entry): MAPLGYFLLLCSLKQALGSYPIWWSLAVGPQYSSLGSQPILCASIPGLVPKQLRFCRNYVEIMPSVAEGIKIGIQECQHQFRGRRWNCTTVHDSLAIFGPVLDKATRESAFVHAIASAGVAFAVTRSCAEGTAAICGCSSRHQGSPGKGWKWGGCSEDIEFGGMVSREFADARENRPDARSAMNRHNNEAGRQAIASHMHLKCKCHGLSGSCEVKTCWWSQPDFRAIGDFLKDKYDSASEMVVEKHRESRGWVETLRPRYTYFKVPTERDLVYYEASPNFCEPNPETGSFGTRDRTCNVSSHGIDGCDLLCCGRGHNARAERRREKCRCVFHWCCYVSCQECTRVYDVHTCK
row,SMILES,IC50 [nM]
1,"Cc1cc(-c2ccc(CNc3nccc4cc(-c5cnccn5)ncc34)cc2)ccn1 [US10087181, Compound 35]",< 3
2,"Cc1cc(-c2cc3ccnc(NCc4ccc(-c5ccnc(F)c5)c(F)c4)c3cn2)ccn1 [US10087181, Compound 28]",< 3
3,"Cc1cc(-c2cc3ccnc(NCc4ccc(-c5ccnc(C)c5)c(C)c4)c3cn2)ccn1 [US10087181, Compound 2]",< 3
4,"Cc1cc(-c2ncc(CNc3nccc4cc(-c5cnccn5)ccc34)cc2C)ccn1 [US10087181, Compound 70]",< 3
5,"Cc1cc(-c2ccc(CNc3nccc4cc(-c5ccnc(C)c5)ncc34)cc2)ccn1 [US10087181, Compound 1]",< 3
